Measurements: PubChem BioAssay (NCI)
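Compound exposure: 48 hours, 5 concentrations, 96-well plates. GI50: concentration for 50% inhibition of growth. TGI: concentration producing complete growth inhibition.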

Assays:
Assay in all cases: NCI tumour cell line growth inhibition, 48 h
[1] = system: HS 578T breast
[2] = system: MCF7 breast
[3] = system: MDA-MB-231 breast
[4] = system: NCI/ADR-RES ovarian
[5] = system: DMS 273 small cell lung
[6] = system: LXFL 529 NSCLC
[7] = system: M19-MEL melanoma
[8] = system: SNB-78 CNS
[9] = system: DMS 114 small cell lung

SMILES	GI50 [1]	TGI [1]	GI50 [2]	TGI [2]	GI50 [3]	TGI [3]	GI50 [4]	TGI [4]	TGI [5]	TGI [6]	TGI [7]	TGI [8]	TGI [9]
COc1ccc(C2SCC(=O)N2NC(=O)C(O)c2ccccc2)cc1OC (configuration not stated)	> 100 µM	> 100 µM	> 100 µM	> 100 µM	> 100 µM	> 100 µM	> 100 µM	> 100 µM	–	–	–	–	–
CC(=O)Nc1ccc(C(=O)NN2C(=O)C(Cl)C2c2ccc([N+](=O)[O-])cc2)cc1 (configuration not stated)	–	–	–	–	–	–	–	–	> 100 µM	> 100 µM	> 100 µM	> 100 µM	–
O=C(c1ccccc1)C1CCCCN1C(=O)c1ccccc1 (configuration not stated)	–	–	–	–	–	–	–	–	> 100 µM	> 100 µM	> 100 µM	> 100 µM	> 100 µM
CC12N=NN(c3ccc([N+](=O)[O-])cc3)C1(O)c1ccccc1C2=O (configuration not stated)	–	–	–	–	–	–	–	–	> 100 µM	> 100 µM	> 100 µM	–	> 100 µM
C=CC1[C@H]2COC(C)(C)O[C@@H]2CC(=O)C1(C)C (some centres not stated)	–	–	–	–	–	–	–	–	> 100 µM	> 100 µM	> 100 µM	> 100 µM	> 100 µM
O=[N+]([O-])c1ccc(S(=O)Cc2ccccc2)c([N+](=O)[O-])c1 (configuration not stated)	21.4 µM	> 100 µM	2.48 µM	6.96 µM	2.82 µM	8.92 µM	13.5 µM	35.4 µM	–	–	–	–	–
CCCCc1c2c(nc3c1CCc1cc4cc5c(nc4nc1-3)-c1nc3c(c(CCCC)c1CC5)CCCC3)CCCC2	–	–	–	–	–	–	–	–	> 100 µM	> 100 µM	> 100 µM	> 100 µM	88 µM
CCCCCCCNc1nc(C(=O)OCC)ncc1-c1ccc(C(F)(F)F)cc1	46.6 µM	> 100 µM	28.1 µM	> 100 µM	33.3 µM	> 100 µM	34.5 µM	> 100 µM	–	–	–	–	–
O=C1c2ccc([N+](=O)[O-])cc2-c2c1c1ccccc1c(=O)n2CCCNCCCNCCCn1c2c(c3ccc([N+](=O)[O-])cc3c1=O)C(=O)c1ccccc1-2	1.43 µM	22.7 µM	0.961 µM	4.55 µM	0.407 µM	2.85 µM	7.51 µM	63.5 µM	–	–	–	–	–
COc1ccc(N2Cc3cnc(Nc4ccccc4)nc3N([C@@H]3CC[C@@H](O)C3)C2=O)cc1	0.671 µM	6.2 µM	16.5 µM	> 25 µM	5.18 µM	> 22.3 µM	6.9 µM	> 25 µM	–	–	–	–	–
CS(=O)(=O)OCCN1CCN(C(=O)c2cccc3c(Nc4ccc(S(=O)(=O)N=C(N)N)cc4)c4ccccc4nc23)CC1	–	–	–	–	–	–	–	–	> 100 µM	–	> 100 µM	> 100 µM	> 100 µM
COc1ccccc1N=C(N)N/N=C/c1c[nH]c2ccccc12	–	–	–	–	–	–	–	–	–	13.1 µM	24.7 µM	25.1 µM	15.5 µM
CCOC(=O)C1=C(C(=O)c2ccc(C)cc2)C(c2cccc([N+](=O)[O-])c2)C(C(=O)c2ccc(C)cc2)=C(C(=O)OCC)N1	–	63.9 µM	–	> 100 µM	–	29 µM	–	39.2 µM	–	–	–	–	–
CC(C)=CCC/C(C)=C/CC/C(C)=C/Cc1c(O)c2ccccc2oc1=O	–	–	–	–	–	–	–	–	> 100 µM	> 100 µM	> 100 µM	> 100 µM	> 100 µM
COc1cc2c(c(OC)c1OC)-c1ccc(N)c(=O)cc1[C@@H](NC(C)=O)CC2	0.0127 µM	> 100 µM	< 0.01 µM	> 100 µM	–	–	3.43 µM	41.2 µM	–	–	–	–	–
Cc1ccc(-c2cc(-c3ccco3)c(C#N)c(=O)[nH]2)cc1	–	–	–	–	–	–	–	–	> 100 µM	> 100 µM	> 100 µM	> 100 µM	–
Cc1c(S(C)(=O)=O)c(-c2cc(F)cc(N3CCN(c4ccc(NS(=O)(=O)c5ccc(N[C@H](CCN6CCC(C(=O)OCCCP(=O)(O)O)CC6)CSc6ccccc6)c(S(=O)(=O)C(F)(F)F)c5)cc4)CC3)c2)c(-c2ccc(Cl)cc2)n1C(C)C	> 100 µM	> 100 µM	> 100 µM	> 100 µM	3.13 µM	28 µM	> 100 µM	> 100 µM	–	–	–	–	–
CN1CCN(c2ccc(NC(=O)c3nc4ccc5[nH]ncc5c4c4c3CCCC4)cc2C(F)(F)F)CC1	5.99 µM	19.4 µM	0.964 µM	2.32 µM	0.941 µM	1.72 µM	1.27 µM	4.21 µM	–	–	–	–	–
COc1ccc(-c2cc(=O)c3c(C)cc(C)nc3[nH]2)cc1	–	> 100 µM	–	> 100 µM	–	67.5 µM	–	> 100 µM	–	–	–	–	–
CCCCCCCCCCCCCCN	–	> 100 µM	–	> 100 µM	–	> 100 µM	–	> 100 µM	–	–	–	–	–
COc1ccc(Nc2ncc(Br)c(NCCCNC(=O)C3CCC3)n2)cc1	3.23 µM	9.2 µM	16.1 µM	67.5 µM	5.06 µM	60.3 µM	19 µM	80.5 µM	–	–	–	–	–
O=C1C=C(NCCNC(=S)Nc2ccccc2)c2nccc3c2c1nc1ccccc13	> 100 µM	> 100 µM	23.3 µM	> 100 µM	94.5 µM	> 100 µM	> 100 µM	> 100 µM	–	–	–	–	–
Cc1ccc(/C(=N\N=C(N)N)c2ccccc2)cc1	0.349 µM	3.67 µM	0.292 µM	10.2 µM	0.394 µM	3.93 µM	1.09 µM	4.51 µM	–	–	–	–	–
C=C1SC(=Nc2c(C)cc(C)cc2C)N(C(=O)c2sc3ccccc3c2Cl)C12CCCCC2	> 100 µM	> 100 µM	> 100 µM	> 100 µM	> 100 µM	> 100 µM	> 100 µM	> 100 µM	–	–	–	–	–
O=C(/C=C/C12c3ccccc3C(c3ccccc31)C1C(=O)N(c3ccccc3)C(=O)C12)c1ccccc1 (configuration not stated)	2.32 µM	> 100 µM	1.48 µM	> 100 µM	2.23 µM	6.77 µM	2.23 µM	> 100 µM	–	–	–	–	–
C[C@H](NC(=O)[C@@H]1CSSC[C@@H](NC(=O)c2nc3ccccc3cc2O)C(=O)NCC(=O)N1C)c1ccccc1	11.2 µM	34.1 µM	0.835 µM	2.47 µM	1.94 µM	7.84 µM	11 µM	50 µM	–	–	–	–	–
